Measured values: ChEMBL document CHEMBL1201862, “PubChem BioAssay data set” (2004)
Calls of active or inactive are those of the source.

Key:
Melanocortin receptor 4 = Melanocortin receptor 4 (Homo sapiens, UniProt P32245); type: functional, cell-based;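 note: Cell-based assay with luminescence read-out, confirmatory dose-response testing for agonist activity of biased ligands at MC4R; human U2OS cells with tagged receptor and beta-arrestin; potency of agonists that increase receptor coupling to beta-arrestin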
[1] = target: T1, Calpain-2 catalytic subunit (Sus scrofa, UniProt P43367); assay: m-calpain protease blockers, concentration series – biochemical, fluorogenic peptide substrate, dose response (AID 1420); type: functional
T1 sequence (P43367 whole entry): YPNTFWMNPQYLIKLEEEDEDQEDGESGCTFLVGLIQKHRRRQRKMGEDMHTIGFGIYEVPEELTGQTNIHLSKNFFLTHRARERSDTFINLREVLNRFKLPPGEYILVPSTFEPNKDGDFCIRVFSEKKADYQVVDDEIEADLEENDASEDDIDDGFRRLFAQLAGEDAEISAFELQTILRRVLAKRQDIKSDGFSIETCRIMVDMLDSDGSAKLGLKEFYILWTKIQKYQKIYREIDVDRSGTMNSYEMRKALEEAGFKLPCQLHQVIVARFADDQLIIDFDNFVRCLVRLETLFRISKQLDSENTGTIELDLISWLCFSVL

[2] = target: T2, Short transient receptor potential channel 4 (Mus musculus, UniProt Q9QUQ5); assay: block of DAMGO-driven TRPC4 calcium entry – cell-based, HEK293 TRPC4/mu-opioid, Fluo-4 calcium, dose response (AID 434942); type: functional;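 note: potency of inhibitors blocking the TRPC4 calcium response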
T2 sequence (Q9QUQ5 whole entry): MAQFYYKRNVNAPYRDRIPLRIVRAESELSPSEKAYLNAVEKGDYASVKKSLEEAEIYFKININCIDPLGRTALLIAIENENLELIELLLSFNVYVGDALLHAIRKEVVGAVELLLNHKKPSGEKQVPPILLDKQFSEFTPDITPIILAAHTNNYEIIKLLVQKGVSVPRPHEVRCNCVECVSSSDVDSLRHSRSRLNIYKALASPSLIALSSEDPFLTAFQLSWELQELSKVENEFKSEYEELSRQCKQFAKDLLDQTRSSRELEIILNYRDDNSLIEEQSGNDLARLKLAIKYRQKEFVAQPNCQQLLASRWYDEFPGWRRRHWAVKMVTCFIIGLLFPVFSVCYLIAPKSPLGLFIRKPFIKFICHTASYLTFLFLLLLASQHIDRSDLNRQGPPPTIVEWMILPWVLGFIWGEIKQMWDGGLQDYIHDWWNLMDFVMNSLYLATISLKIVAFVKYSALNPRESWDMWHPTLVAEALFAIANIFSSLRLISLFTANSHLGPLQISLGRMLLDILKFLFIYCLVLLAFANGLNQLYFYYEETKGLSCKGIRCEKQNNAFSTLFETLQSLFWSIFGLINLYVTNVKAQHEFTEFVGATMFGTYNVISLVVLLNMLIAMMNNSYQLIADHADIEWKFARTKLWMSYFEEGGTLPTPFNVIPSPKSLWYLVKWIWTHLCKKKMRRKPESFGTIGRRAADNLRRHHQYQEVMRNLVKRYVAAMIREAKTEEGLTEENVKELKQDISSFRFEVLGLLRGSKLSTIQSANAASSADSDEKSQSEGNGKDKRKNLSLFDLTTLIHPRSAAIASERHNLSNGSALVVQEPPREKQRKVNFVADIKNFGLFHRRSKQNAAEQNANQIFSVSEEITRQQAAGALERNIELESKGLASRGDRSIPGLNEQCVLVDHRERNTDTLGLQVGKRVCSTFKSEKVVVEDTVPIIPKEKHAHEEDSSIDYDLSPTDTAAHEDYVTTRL

Cytochrome P450 2C9 = Cytochrome P450 2C9 (Homo sapiens, UniProt P11712)
Cytochrome P450 2C19 = Cytochrome P450 2C19 (Homo sapiens, UniProt P33261); assay: Cytochrome panel assay with activity outcomes. Panel member name: p450-cyp2c19 Compounds with AC50 equal or less than 10 uM are considered active; type: functional; settings: read-out: AC50
[3] = target: T2, Short transient receptor potential channel 4; assay: calcium entry via TRPC4 opening agents – cell-based, HEK293 TRPC4/mu-opioid, Fluo-4 calcium, dose response (AID 434937); type: functional
Cytochrome P450 3A4 = Cytochrome P450 3A4 (Homo sapiens, UniProt P08684);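 note: CYP3A4 tested as one member of a cytochrome P450 panel screen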
cells = type: functional
[4] = blockers of bursicon-stimulated LGR2 cAMP reporter – cell-based, HEK293, CRE-luciferase reporter, cherry pick, set 2, dose response (AID 743343); type: functional;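 note: transfected cells were stimulated with diluted bursicon conditioned medium after compound addition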
[5] = blockade of melanocortin 4 receptor signaling – cell-based, plate reader, cherry pick, counter-screen for LGR2 antagonist project, dose response (AID 743444); type: functional;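 note: transfected HEK 293 cells stimulated with alpha-MSH peptide; potency of inhibitors of the alpha-MSH evoked signal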
[6] = target: T3, Ubiquitin-conjugating enzyme E2 N (Homo sapiens, UniProt P61088); type: functional;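 note: Dose-response confirmation in a TR-FRET assay detecting UBC13-driven polyubiquitin chain formation, inhibition measured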
T3 sequence (P61088 whole entry): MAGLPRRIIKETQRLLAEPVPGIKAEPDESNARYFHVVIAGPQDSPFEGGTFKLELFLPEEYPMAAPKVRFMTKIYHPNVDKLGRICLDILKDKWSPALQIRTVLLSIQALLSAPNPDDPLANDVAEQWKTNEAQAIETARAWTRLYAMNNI

[7] = microbe, parasite or virus in culture; type: functional; settings: Mycobacterium tuberculosis

Melanocortin receptor 4, sequence (P32245 whole entry): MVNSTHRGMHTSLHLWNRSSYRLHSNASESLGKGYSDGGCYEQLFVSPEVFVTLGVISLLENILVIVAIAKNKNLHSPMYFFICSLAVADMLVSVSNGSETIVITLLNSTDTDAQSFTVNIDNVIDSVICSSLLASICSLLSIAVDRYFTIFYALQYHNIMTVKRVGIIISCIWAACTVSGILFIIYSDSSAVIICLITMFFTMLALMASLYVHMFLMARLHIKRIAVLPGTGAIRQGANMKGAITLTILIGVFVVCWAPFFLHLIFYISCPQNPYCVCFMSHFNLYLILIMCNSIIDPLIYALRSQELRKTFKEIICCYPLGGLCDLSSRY
Cytochrome P450 2C9, sequence (P11712 whole entry): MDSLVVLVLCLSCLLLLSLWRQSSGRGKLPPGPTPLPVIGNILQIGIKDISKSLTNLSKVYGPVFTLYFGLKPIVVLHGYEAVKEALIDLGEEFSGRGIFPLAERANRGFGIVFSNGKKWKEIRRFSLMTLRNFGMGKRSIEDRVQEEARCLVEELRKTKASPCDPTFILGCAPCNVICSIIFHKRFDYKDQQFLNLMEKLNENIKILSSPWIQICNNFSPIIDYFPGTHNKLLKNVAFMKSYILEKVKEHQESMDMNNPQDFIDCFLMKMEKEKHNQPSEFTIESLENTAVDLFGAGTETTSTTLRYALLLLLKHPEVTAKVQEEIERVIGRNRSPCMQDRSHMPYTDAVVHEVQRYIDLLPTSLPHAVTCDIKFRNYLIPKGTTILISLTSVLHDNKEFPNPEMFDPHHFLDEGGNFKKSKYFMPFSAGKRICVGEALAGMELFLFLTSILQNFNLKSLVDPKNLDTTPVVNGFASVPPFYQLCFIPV
Cytochrome P450 3A4, sequence (P08684 whole entry): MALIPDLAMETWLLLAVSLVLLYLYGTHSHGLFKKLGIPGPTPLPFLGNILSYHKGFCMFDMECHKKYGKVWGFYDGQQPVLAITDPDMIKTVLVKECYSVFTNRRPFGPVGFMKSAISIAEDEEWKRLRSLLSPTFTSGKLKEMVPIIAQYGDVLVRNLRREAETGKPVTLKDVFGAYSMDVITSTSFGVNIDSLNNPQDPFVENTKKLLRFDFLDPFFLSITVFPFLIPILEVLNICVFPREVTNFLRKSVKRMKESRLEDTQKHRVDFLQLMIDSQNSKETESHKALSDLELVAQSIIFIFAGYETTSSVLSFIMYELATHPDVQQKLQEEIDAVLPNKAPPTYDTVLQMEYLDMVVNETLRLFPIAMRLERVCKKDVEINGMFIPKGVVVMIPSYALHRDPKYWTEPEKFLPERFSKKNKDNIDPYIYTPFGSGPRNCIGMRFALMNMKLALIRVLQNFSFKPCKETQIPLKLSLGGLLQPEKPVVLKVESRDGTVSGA
Cytochrome P450 2C19, sequence (P33261 whole entry): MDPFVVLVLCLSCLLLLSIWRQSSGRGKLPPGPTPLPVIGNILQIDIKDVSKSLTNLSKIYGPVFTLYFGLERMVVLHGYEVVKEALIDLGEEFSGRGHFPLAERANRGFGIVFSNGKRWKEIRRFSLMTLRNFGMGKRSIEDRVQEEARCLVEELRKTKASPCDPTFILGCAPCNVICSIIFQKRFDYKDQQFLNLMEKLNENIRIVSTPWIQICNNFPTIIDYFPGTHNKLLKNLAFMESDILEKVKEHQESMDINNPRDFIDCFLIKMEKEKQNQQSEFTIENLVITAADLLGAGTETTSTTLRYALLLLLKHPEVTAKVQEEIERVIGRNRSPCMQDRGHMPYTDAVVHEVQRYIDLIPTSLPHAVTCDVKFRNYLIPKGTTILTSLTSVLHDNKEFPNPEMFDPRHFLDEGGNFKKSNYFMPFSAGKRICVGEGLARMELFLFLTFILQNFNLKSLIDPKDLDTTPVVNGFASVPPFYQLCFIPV

## COc1ccc(NC(=O)COC(=O)c2c(NC(C)=O)sc(C)c2C)cc1
Melanocortin receptor 4
  EC50: > 89.3 µM (inactive)

## Cc1ccc(N2C(=O)CC(c3c[nH]c4ccccc34)C2=O)cc1 (stereo not drawn)
[1]
  IC50: 12.1 µM (not active)

## CC1CCCN1CC#CC(O)(c1ccccc1)c1ccccc1 (stereo not drawn)
[2]
  EC50: 0.188 µM (active)

## O=C(Nc1cc(-c2nc3ccccc3s2)ccc1Cl)c1ccc2c(c1)OCO2
Cytochrome P450 2C9
  AC50: 1.78 µM (inconclusive)
Melanocortin receptor 4
  EC50: > 89.2 µM (inactive)
Cytochrome P450 2C19
  AC50: 3.55 µM (inconclusive)

## CCCCNS(=O)(=O)c1ccc2[nH]c(SCC(=O)Nc3ccccc3Cl)nc2c1
[1]
  IC50: 18.5 µM (not active)

## CCN1CCN(c2ccc(S(=O)(=O)N3CCOCC3)cc2NC(=O)/C=C/c2ccc(OC)cc2OC)CC1
[3]
  EC50: 2.99 µM (active)

## Nc1c(-c2cccs2)cnn1-c1nc(-c2ccc(Cl)cc2Cl)cs1
Cytochrome P450 2C9
  AC50: 20 µM (inconclusive)
Melanocortin receptor 4
  EC50: > 89.2 µM (inactive)
Cytochrome P450 3A4
  AC50: 12.6 µM (inconclusive)

## C=CCn1c(CCNC(=O)c2ccco2)nc2ccccc21
[3]
  EC50: 1.68 µM (active)

## CCCOc1cccc(C(=O)NCCNC(=O)c2ccco2)c1
[2]
  EC50: 2.99 µM (active)

## Cn1nc(C(=O)NNc2c(F)c(F)cc(F)c2F)c2ccccc2c1=O
[1]
  IC50: 5.53 µM (not active)

## CC1Cc2ccccc2N1C(=S)NC(=O)c1ccco1 (stereo not drawn)
[1]
  IC50: 0.535 µM (not active)

## c1csc(-c2nc(NCC3CCCO3)c3ccccc3n2)c1 (stereo not drawn)
[2]
  EC50: 4.73 µM (active)

## COc1ccc(C2CC(c3ccccc3)Nc3nc(NC(=O)c4cccs4)nn32)cc1 (stereo not drawn)
[2]
  EC50: 1.06 µM (active)

## COc1ccc(OCC(=O)N/N=C2\CCc3ccccc32)cc1
cells
  IC50: 42.9 µM (active)

## COc1ccc(S(=O)(=O)N2CCCCN3[C@H](CO)[C@H](c4ccc(-c5cccnc5)cc4)[C@@H]3C2)cc1
[4]
  AC50: 20 µM (active)
[5]
  AC50: 25.6 µM (active)

## Cc1ccc(SC[C@H](c2ccccc2)N2CCN(CCc3ccccc3)CCC2=O)cc1
[1]
  IC50: 7.19 µM (not active)

## CCCN(CCC)CCN=C(S)Nc1ccc2nc3n(c(=O)c2c1)CCCCC3
[3]
  EC50: 0.299 µM (active)

## COc1ccc(-c2oc3ccc(-c4ccc5c(c4)OCO5)cc3c2C#CC2(O)CCCCC2)cc1
Melanocortin receptor 4
  EC50: > 89.2 µM (inactive)

## COc1ccc(C(=O)C2CCCN(C3Cc4ccccc4C3)C2)cc1OC (stereo not drawn)
[3]
  EC50: 1.68 µM (active)

## CC(C)C(=O)Nc1ccc(C(=O)Nc2nnc(C(C)(C)C)s2)cc1
[2]
  EC50: 0.237 µM (active)

## COc1ccccc1C(=O)Nc1ccc(C(=O)c2ccccc2)cc1
[1]
  IC50: 35.2 µM (not active)

## FC(F)Oc1ccccc1N=C(S)Nc1cccc(Cl)c1Cl
[2]
  EC50: 7.5 µM (active)

## O=C1Nc2cc(C(=O)NCCCN3CCOCC3)ccc2S/C1=C/c1cccc(Cl)c1
cells
  IC50: 27.8 µM (active)
[6]
  IC50: > 20 µM (inactive)
[7]
  CC50: > 40 µM (active)

## Cc1onc(-c2ccccc2)c1C(=O)Nc1nnc(COc2ccc(Cl)cc2)s1
cells
  IC50: 8.45 µM (active)

## COc1ccc(F)cc1CN1CCN(C(=O)CCC(=O)Nc2nnc(C(C)C)s2)CC1
[3]
  EC50: 0.841 µM (active)

## CC(=O)Nc1cc(-c2ccc(C(=O)N3CCOCC3)cc2)cn2c(-c3ccccc3)cnc12
Melanocortin receptor 4
  EC50: > 89.2 µM (inactive)
